Test results from patent publication US20250025454A1 (priority 2021, published 2025).

Legend:
SARS-CoV-2 [1] = settings: 35 compounds tested
SARS-CoV-2/WA1 = format: cell-based; settings: Severe acute respiratory syndrome coronavirus 2, HeLa-ACE2
SARS-CoV-2 [2] = assay: microbe, parasite or virus in culture; settings: Severe acute respiratory syndrome coronavirus 2, HeLa-ACE2, 24 h
in vitro = settings: human, EC50, compound toxicity in the context of infection, total cell numbers per well; average±sem of 5 independent experiments

Cc1c2c(nn1C)CSCc1cc(n(C)n1)CSc1cc(c3ccccc3c1)OCCCc1c(C(=O)O)n(C)c3c-2c(Cl)ccc13 [AZD-5991]
activity in the HeLa-ACE2 cell-based SARS-CoV-2 assay (SARS-CoV-2 [1]): demonstrated activity

COc1cc(Cl)cc(C(C)Nc2cc(N3CCNCC3)ccc2S(C)(=O)=O)c1OC.Cl (stereo not shown) [PRX-07034]
activity in the HeLa-ACE2 cell-based SARS-CoV-2 assay (SARS-CoV-2 [1]): demonstrated activity

CNCc1ccc(-c2cc(-c3nc(-c4ccc(S(=O)(=O)C(C)C)cc4)cnc3N)on2)cc1 [berzosertib, reference compound]
IC50 (SARS-CoV-2/WA1): 110 nM
activity in the HeLa-ACE2 cell-based SARS-CoV-2 assay (SARS-CoV-2 [1]): demonstrated activity
EC50 (SARS-CoV-2 [2]): 114 nM

COc1ccc(C[C@H](N)C(=O)N[C@H]2[C@@H](O)[C@H](n3cnc4c(N(C)C)ncnc43)O[C@@H]2CO)cc1 [puromycin]
EC50 (in vitro): 547 ± 27 nM

Nc1ncnc2c1nc(Cl)n2[C@@H]1O[C@@H]2COP(=O)(O)O[C@H]2[C@H]1O [tocladesine]
activity in the HeLa-ACE2 cell-based SARS-CoV-2 assay (SARS-CoV-2 [1]): demonstrated activity
